Reference: patent publication US20110318273A1, “FLUORESCENT CONTRAST AGENTS” (GE HEALTHCARE AS, priority 2004, published 2011)

Tests used:
[1] = Absorption spectrum of the reduced fluorochrome in phosphate-buffered saline (diode array spectrophotometer); assay type: physicochemical; details: for absorption in the visible region: reduced with sodium borohydride, diluted in phosphate-buffered saline, pH 7.4
Protocol: (§1) To 2 ml of a 1 mM solution of rhodamine 800 (Fluke, prod. No. 83701) in 0.1 M borate buffer, pH 8.5 was added approximately 5 mg of sodium borohydride. The mixture was shaken and left at room temperature for two hours. 40 microliters of the reduced solution was added to 960 μl of phosphate-buffered saline, pH 7.4. […] The spectrum of untreated rhodamine 800 (solid line) was recorded by exactly the same procedure. The sample of diluted, reduced fluorochrome was gently oxidized in air and its spectrum recorded (dashed line).
(§2) To 2 ml of a 1 mM solution of rhodamine 110 (Fluka, prod. No. 83695) in 0.1 M borate buffer, pH 8.5 was added approximately 5 mg of sodium borohydride. The mixture was shaken and left at room temperature for two hours. 40 microliters of the reduced solution was added to 960 μl of phosphate-buffered saline, pH 7.4. […] The spectrum of untreated rhodamine 110 (solid line) was recorded by exactly the same procedure. The sample of diluted, reduced fluorochrome was gently oxidized in air and its spectrum recorded (dashed line).
(§3) To 2 ml of a 1 mM solution of fluorescein (Sigma, prod. No. F-6377) in 0.1 M borate buffer, pH 8.5 was added approximately 5 mg of sodium borohydride. The mixture was shaken and left at room temperature for two hours. 40 microliters of the reduced solution was added to 960 μl of phosphate-buffered saline, pH 7.4. […] The spectrum of untreated fluorescein (solid line) was recorded by exactly the same procedure. The sample of diluted, reduced fluorochrome was gently oxidized in air and its spectrum recorded (dashed line).

[2] = Re-oxidation of the diluted, reduced fluorochrome in air, spectrum recorded; assay type: physicochemical; details: gently oxidized in air
Protocol: as §1, §2, §3

[3] = Oxidation of reduced rhodamine 110 by hydrogen peroxide, increase in fluorescence; details: hydrogen peroxide 10 μM final; emission 538 nm, excitation 485 nm
Protocol: Rhodamine 110 was reduced as in Example 2. Hydrogen peroxide to a final concentration of 10 μM was added to a portion of the solution of reduced rhodamin 110, i.e. to dihydrorhodamin 110, and the increase in fluorescence was recorded at 538 nm (excitation at 485 nm) on a Thermo Fluoroscan Ascent FL fluorimeter.

Row | SMILES | fluorescence following exposure to visible light [1] | absorption in the visible region [1] | optical properties after oxidation of the reduced fluorochrome [2] | oxidation by hydrogen peroxide (increase in fluorescence) [3]
1 | Nc1ccc2c(c1)Oc1cc(N)ccc1C2c1ccccc1C(=O)O [dihydro-rhodamine 110] | very little fluorescence | virtually no absorption in the visible region | regaining its optical properties | rapidly oxidised
2 | N#CC1c2cc3c4c(c2Oc2c1cc1c5c2CCCN5CCC1)CCCN4CCC3 [dihydro-rhodamine 800] | no fluorescence | losing nearly all absorption in the visible region | regaining its optical properties | –
3 | O=C(O)c1ccccc1C1c2ccc(O)cc2Oc2cc(O)ccc21 [dihydrofluorescein] | no fluorescence | losing nearly all absorption in the visible region | regaining its optical properties | –
